Patent publication US9540648B2, “Therapeutic use of activators of zinc finger protein GL13” (Universität Leipzig, priority 2012, dated 2017)

Key:
C57Bl/6-N hepatocytes [1] = experiment: Silencing of GLI family members by siRNA in hepatocytes, gene expression by qRT-PCR; format: cell-based, murine; settings: for expression of lipogenic transcription factor Srebp1 (mRNA): FIG. 5
Excerpt: Total RNA from hepatocytes, liver tissue and other organs was extracted using TRIzol (Peqlab, Erlangen). Total RNA from adipose tissue was extracted using the RNeasy Lipid Tissue mini Kit (Quiagen, Hilden). RNA was reverse transcribed using oligo(dt) primers and IM Promm II reverse transcriptase (Promega). The resulting cDNA samples were then quantified for each test gene using target gene-specific primers designed using the online tools Universal ProbeLibrary Probe-Finder software, Perl Primer and Primer 3.
(§1) The levels of all mRNA transcripts were determined in duplicate by qRT-PCR using the Light Cycler® 2.0 Instrument and the LightCycler® FastStart DNA Master PLUS SYBR Green I (Roche). Using the standard curve method, the absolute quantitation of specific PCR products for each primer set was generated. For normalization, β-actin was amplified from each sample.
To analyze the role of GLI family members in C57Bl/6-N hepatocytes on gene expression, murine hepatocytes were isolated and cultured for 72 h upon transfection with siRNA silencing either GLI1, GLI2 or GLI3.
GLI1-, GLI2- and GLI3-specific siRNAs and respective scrambled control siRNAs were purchased from Invitrogen. The following double stranded siRNAs were used for inhibition of GLI1, GLI2 and GLI3:
(§2) Freshly isolated hepatocytes were seeded at a density of 100.000 cells per well of 12-well plates in normal culture medium containing 10% FCS. After 4 h, serum-free medium was used and chemically synthesized siRNAs ([…] for GLI2 and GLI3, 50 nM for GLI1) were transfected with Interferin from Peqlab (Erlangen) according to the manufacturer's instructions. Twenty-four hours after transfection, the medium was changed and fresh medium without siRNA was added. Changes in gene expression were analyzed by qRT PCR at different time points up to 72 h post-transfection as indicated in figure legends using primers as described above in Example 2 and the following additional primers: […]

C57Bl/6-N hepatocytes [2] = experiment: Oil red O staining of neutral lipids in cultured hepatocytes transfected with GLI siRNA; format: cell-based, murine; settings: 72 h after siRNA transfection, FIG. 8
Method: FIG. 8 Staining of neutral lipids by Oil red O in cultured hepatocytes transfected with a) mock, b) GLI1 siRNA, c) GLI2 siRNA and d) GLI3 siRNA determined after 72 h.
as §2
On the contrary neither GLI1 siRNA (FIG. 8b) nor GLI2 siRNA (FIG. 8c) was capable of mediating this effect.

[3] = test system: murine C57BL/6-N hepatocytes; experiment: Silencing of Sufu by siRNA in hepatocytes, gene expression by real time PCR; format: cell-based
Method: as §1, §2
Sufu is a known inhibitor of hedgehog signalling. The transfection of hepatocytes with siRNA and real time PCR was performed as described in Example 3. The following additional primers were used: […]

mouse hepatocytes = experiment: Cyclopamine: accumulation of neutral lipids in cultured mouse hepatocytes (Nile red staining); format: cell-based; settings: 10 μM cyclopamine, 72 h
Method: (§3) Cyclopamine (Sigma) was dissolved in DMSO (10 mM). Mouse and human hepatocytes were incubated for 72 h in the presence of 10 μM Cyclopamine. Control cultures were incubated with culture medium containing vehicle (0.1% DMSO).
(§4) Fluorescent staining of neutral lipids in hepatocytes was performed using Nile red (Biomol). Hepatocytes were fixed with 4% buffered paraformaldehyde for 10 min. For Nile red staining, a 200 nM working solution in phosphate-buffered saline (PBS) was prepared from a 1 mM stock solution in DMSO and was added directly to the fixed cells. After 20 min of incubation at room temperature cells were washed in PBS. Nuclei were counterstained with DAPI (Sigma).
(§5) Primary hepatocytes from SLC mice were isolated by collagenase perfusion of the liver. Cell suspension was carefully cleared from non-parenchymal cells by differential centrifugation. Finally, hepatocytes were suspended in Williams Medium E containing 10% fetal calf serum and further additions as described (Klingmüller et al., 2006), and were plated onto 6-well or 12-well plates precoated with collagen type I (Klingmüller et al., 2006; Gebhardt et al., 1982). After 4 h, serum-free medium was used throughout cultivation. Cryopreserved human hepatocytes were purchased from TebuBio (Offenbach, Germany). […]

human hepatocytes = experiment: Cyclopamine: accumulation of neutral lipids in cultured human hepatocytes (Nile red staining); format: cell-based; settings: 10 μM cyclopamine, 72 h
Method: as §3, §4, §5

GLI3 siRNA: double stranded siRNA for inhibition of GLI3, SEQ ID No. 5 and 6, purchased from Invitrogen (chain 1 UAGCAAGGCCAUCUUGGUCUUCAGG; chain 2 CCUGAAGACCAAGAUGGCCUUGCUA; listed as RNA, chemistry not given here)
IGF1 mRNA (C57Bl/6-N hepatocytes [1]; Gli siRNA, FIG. 23A): downregulates
IGFBP1 mRNA (C57Bl/6-N hepatocytes [1]; Gli siRNA, FIG. 23B): upregulated
expression of lipogenic transcription factor PPAR-γ (mRNA) (C57Bl/6-N hepatocytes [1]; siRNA vs nonsense RNA control, FIG. 4): significantly increased
expression of lipogenic transcription factor Srebp1 (mRNA) (C57Bl/6-N hepatocytes [1]; siRNA vs nonsense RNA control): significantly increased
expression of lipogenic enzyme ELOVL fatty acid elongase 6 (Elovl6) (C57Bl/6-N hepatocytes [1]; siRNA vs nonsense RNA control, FIG. 6): increased expression
expression of lipogenic enzyme fatty acid synthase (Fasn) (C57Bl/6-N hepatocytes [1]; siRNA vs nonsense RNA control, FIG. 7): increased expression
accumulation of fat droplets (Oil red O staining of neutral lipids) (C57Bl/6-N hepatocytes [2]): pronounced accumulation of fat droplets

GLI2 siRNA: double stranded siRNA for inhibition of GLI2, SEQ ID No. 3 and 4, purchased from Invitrogen (chain 1 CCACAACCACAACGUUGCUCAGACA; chain 2 UGUCUGAGCAAGCUUGUGGUUGUGG; listed as RNA, chemistry not given here)
expression of lipogenic transcription factor Srebp1 (mRNA) (C57Bl/6-N hepatocytes [1]; siRNA vs nonsense RNA control): not
accumulation of fat droplets (Oil red O staining of neutral lipids) (C57Bl/6-N hepatocytes [2]): comparable phenotype as wild type hepatocytes

GLI1 siRNA: double stranded siRNA for inhibition of GLI1, SEQ ID No. 1 and 2, purchased from Invitrogen (chain 1 UGGAGAACCUUAGGCUGGAUCAGCU; chain 2 AGCUGAUCCAGCCUAAGGUUCUCCA; listed as RNA, chemistry not given here)
expression of lipogenic transcription factor Srebp1 (mRNA) (C57Bl/6-N hepatocytes [1]; siRNA vs nonsense RNA control): not
accumulation of fat droplets (Oil red O staining of neutral lipids) (C57Bl/6-N hepatocytes [2]): comparable phenotype as wild type hepatocytes

Sufu siRNA: double stranded siRNA inhibiting Sufu, SEQ ID No. 7 and 8; preferred GLI3 activating siRNA (chain 1 CCCUUGGACUAUGUUAGCAUGUACA; chain 2 UGUACAUGCUAACAUAGUCCAAGGG; listed as RNA, chemistry not given here)
expression of GLI2 ([3]; FIG. 9): increased expression
expression of GLI3 ([3]; FIG. 9): increased expression
expression of Indian hedgehog (IHH) ([3]; FIG. 9): increased expression
silencing of Sufu ([3]; FIG. 9): Successful silencing
expression of GATA4 ([3]; FIG. 10): increased expression
hepatocellular expression of PPAR-γ ([3]; FIG. 10): reduced
hepatocellular expression of Srebp1 ([3]; FIG. 10): reduced
expression of Cyp17A1 ([3]; FIG. 19): decreased expression

CC1=C2C[C@H]3[C@@H](CC=C4C[C@@H](O)CC[C@@]43C)[C@@H]2CC[C@]12O[C@@H]1C[C@H](C)CN[C@H]1[C@H]2C [cyclopamine, Cyclopamine]
steatosis (accumulation of neutral lipids) (mouse hepatocytes): marked steatosis
steatosis (accumulation of neutral lipids) (human hepatocytes): marked steatosis
